From patent US11987579B2 (Duke University, priority 2018, dated 2024)

Test system: CCD841Co colonic cells
Test: Assessment of oxygen consumption rate (OCR), Seahorse XFp
Format: cell-based
Conditions: 1 μM FCCP, cells treated with DMSO control media
Method: Colonic epithelial CCD841Co cells were plated in Seahorse XFp 8-well miniplates at 8000 cells/well and allowed to attach overnight at 37° C. in a 5% CO2 incubator. Polarographic analysis of OCR was performed using Seahorse XF Analyzer (Agilent Technologies, Santa Clara, Calif.) and a Seahorse XFp Cell Mito Stress Test Kit (Agilent Technologies, catalog number 103010-100). […] Data were analyzed by the software Wave (Version 2.3.0.20, Agilent Technologies, Santa Clara, Calif.).

SMILES: N#CC(C#N)=NNc1ccc(OC(F)(F)F)cc1 [FCCP]
- oxygen consumption rate after control compound addition: increases oxygen consumption rate
